From ChEMBL document CHEMBL3046159, “Synthesis of some 3,4-disubstituted-6,7-dihydro-imidazo[2,1-b][1,3]thiazole and 3,4-disubstituted-7,8-dihydro-6H-imidazo[2,1-b][1,3]thiazine derivatives and evaluation of their cytotoxicities against F2408 and 5RP7 cells” (Med Chem Res, 2008)
≈ marks a conversion by molar mass, not a printed value. Calls of active or inactive are those of the source. The rule behind the calls is not given here.

Experiments:
[1] = Cytotoxicity against Rattus norvegicus (rat) 5RP7 cells assessed as cell viability at 0.0128 ug/ml after 24 hr by MTT assay; type: functional; conditions: 5RP7, 24 h, read-out: Activity
[2] = Cytotoxicity against Rattus norvegicus (rat) F2408 cells assessed as cell viability at 0.0256 to 0.064 ug/ml after 24 hr by MTT assay; type: cell-based; conditions: read-out: Activity
[3] = Cytotoxicity against Rattus norvegicus (rat) F2408 cells assessed as cell viability at 0.0128 ug/ml after 24 hr by MTT assay; type: cell-based; conditions: read-out: Activity
[4] = Cytotoxicity against Rattus norvegicus (rat) F2408 cells after 24 hr by MTT assay; type: cell-based; conditions: F2408, 24 h
[5] = Cytotoxicity against Rattus norvegicus (rat) 5RP7 cells after 24 hr by MTT assay; type: functional, cell-based; conditions: 5RP7, 24 h
[6] = Cytotoxicity against Rattus norvegicus (rat) F2408 cells after 48 hr by MTT assay; type: cell-based; conditions: f2408, 48 h
[7] = test system: 5RP7; assay: Cytotoxicity against Rattus norvegicus (rat) 5RP7 cells at high concentration after 48 hr by MTT assay; type: functional, cell-based
[8] = test system: 5RP7; assay: Cytotoxicity against Rattus norvegicus (rat) 5RP7 cells at low concentration after 24 by MTT assay; type: functional, cell-based
[9] = Cytotoxicity against Rattus norvegicus (rat) F2408 cells at low concentration after 24 hr by MTT assay; type: cell-based; conditions: f2408, 24 h
[10] = Cytotoxicity against Rattus norvegicus (rat) F2408 cells at 0.0128 ug/ml by MTT assay; type: cell-based
[11] = Cytotoxicity against Rattus norvegicus (rat) F2408 cells at 0.0256 ug/ml by MTT assay; type: cell-based
[12] = Cytotoxicity against Rattus norvegicus (rat) 5RP7 cells at 0.0128 ug/ml by MTT assay; type: functional
[13] = Cytotoxicity against Rattus norvegicus (rat) 5RP7 cells at 0.064 ug/ml by MTT assay; type: functional
[14] = Cytotoxicity against Rattus norvegicus (rat) F2408 cells at 0.064 ug/ml by MTT assay; type: cell-based
[15] = Cytotoxicity against Rattus norvegicus (rat) 5RP7 cells at 0.0256 ug/ml by MTT assay; type: functional

Structure (SMILES)	IC50 [4] [µg/mL]	IC50 [5] [µg/mL]	Activity [8]	Activity [9]	further results
Cc1ccc(-c2nc3n(c2-c2ccc(C)cc2)CCCS3)cc1	12 (≈ 37.4 µM)	4.6 (≈ 14.4 µM)			viability at 0.0128 µg/mL [1]: 87%; viability at 24 h [2]: 100%; viability at 24 h, 0.0128 ug/ml [3]: 100%
c1ccc(-c2nc3n(c2-c2ccccc2)CCS3)cc1	9.5 (≈ 34.1 µM)	15 (≈ 53.9 µM)			Activity [6]: Toxic; Activity [7]: Active
COc1ccc(-c2nc3n(c2-c2ccc(OC)cc2)CCS3)cc1	29 (≈ 85.7 µM)	22 (≈ 65 µM)	Active	Non-toxic	
Cc1ccc(-c2nc3n(c2-c2ccc(C)cc2)CCS3)cc1	15 (≈ 49 µM)	18 (≈ 58.7 µM)	Active	Non-toxic	
c1ccc(-c2nc3n(c2-c2ccccc2)CCCS3)cc1	10 (≈ 34.2 µM)	2.9 (≈ 9.92 µM)			Activity [10]: 20%; Activity [11]: 21%; Activity [12]: 30%; Activity [13]: 21%; Activity [14]: 18%; Activity [15]: 28%
